Counter-ions that a name gives are not always drawn.
Biological target: T1, human M2 receptor (Homo sapiens, UniProt P08172)
T1 construct: expressed in transfected cells; host or cells: CHO-DUKX (CHO-DUKX-M2-GIRK)
T1 sequence (P08172 1-466): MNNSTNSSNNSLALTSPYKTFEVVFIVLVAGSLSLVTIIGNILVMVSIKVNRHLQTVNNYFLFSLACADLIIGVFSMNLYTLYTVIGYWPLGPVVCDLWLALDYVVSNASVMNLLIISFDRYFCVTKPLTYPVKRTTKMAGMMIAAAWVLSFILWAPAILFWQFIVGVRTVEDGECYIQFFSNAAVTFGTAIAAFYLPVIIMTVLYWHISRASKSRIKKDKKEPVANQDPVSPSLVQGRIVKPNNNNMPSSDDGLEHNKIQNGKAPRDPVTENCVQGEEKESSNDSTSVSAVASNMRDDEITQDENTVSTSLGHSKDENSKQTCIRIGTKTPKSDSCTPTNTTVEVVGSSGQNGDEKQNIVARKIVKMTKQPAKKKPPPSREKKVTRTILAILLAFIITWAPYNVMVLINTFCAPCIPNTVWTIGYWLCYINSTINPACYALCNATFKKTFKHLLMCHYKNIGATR
Assay: Functional M2-GIRK1/4 activation test: allosteric potency (EC50) and efficiency at EC20 acetylcholine
Assay type: cell-based
Conditions: CHO-DUKX-M2-GIRK cells; for EC50: voltage-sensitive dye, acetylcholine at EC20, in some cases mean of two or more determinations; for Emax: boosting of the acetylcholine effect at EC20 acetylcholine concentration
How it was run: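 Positive allosteric modulation measured as boosting of an EC20 acetylcholine response: hyperpolarization via GIRK1/4 in CHO-DUKX-M2-GIRK cells, monitored by membrane-potential dye fluorescence over 60 s after agonist, compound preadded. Hill-function fit gives EC50 and efficiency.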

| EC50 [nM] | Emax [%] | SMILES |
| --- | --- | --- |
| 4.03 | 100 | CCC(COC(F)(F)F)NC(=O)c1cn(-c2c(F)cc(F)cc2F)c2nc(N3C[C@@H](O)[C@H](O)C3)c(F)cc2c1=O (stereo partly drawn) [Example 26, 7-[(3R,4R)-3,4-dihydroxypyrrolidin-1-yl]-6-fluoro-4-oxo-N-[(2)-1-(trifluoromethoxy)butan-2-yl]-1-(2,4,6-trifluorophenyl)-1,4-dihydro-1,8-naphthyridine-3-carboxamide] |
| 25 | 96 | CN(CCO)c1nc2c(cc1F)c(=O)c(C(=O)N[C@@H](C1CC1)C(F)(F)F)cn2-c1c(F)cc(F)cc1F [Example 55, N-[(1S)-1-Cyclopropyl-2,2,2-trifluoroethyl]-6-fluoro-7-[(2-hydroxyethyl)(methyl)amino]-4-oxo-1-(2,4,6-trifluorophenyl)-1,4-dihydro-1,8-naphthyridine-3-carboxamide] |
| 3.6 | 100 | CN(C)c1nc2c(cc1F)c(=O)c(C(=O)NC(C)(C)C)cn2-c1c(F)cc(F)cc1F [Example 60, N-tert-Butyl-7-(dimethylamino)-6-fluoro-4-oxo-1-(2,4,6-trifluorophenyl)-1,4-dihydro-1,8-naphthyridine-3-carboxamide] |
| 2.2 | 94 | CCC(C)(C)NC(=O)c1cn(-c2c(F)cc(F)cc2F)c2nc(N(C)C)c(F)cc2c1=O [Example 61, 7-(Dimethylamino)-6-fluoro-N-(2-methylbutan-2-yl)-4-oxo-1-(2,4,6-trifluorophenyl)-1,4-dihydro-1,8-naphthyridine-3-carboxamide] |
| 4.1 | 88 | CN(C)c1nc2c(cc1F)c(=O)c(C(=O)NC(C)(C)C(F)(F)F)cn2-c1c(F)cc(F)cc1F [Example 62, 7-(Dimethylamino)-6-fluoro-4-oxo-N-(1,1,1-trifluoro-2-methylpropan-2-yl)-1-(2,4,6-trifluoro-phenyl)-1,4-dihydro-1,8-naphthyridine-3-carboxamide] |
| 3.9 | 92 | CN(C)c1nc2c(cc1F)c(=O)c(C(=O)NC(C)(C)CC(F)(F)F)cn2-c1c(F)cc(F)cc1F [Example 63, 7-(Dimethylamino)-6-fluoro-4-oxo-N-(4,4,4-trifluoro-2-methylbutan-2-yl)-1-(2,4,6-trifluoro-phenyl)-1,4-dihydro-1,8-naphthyridine-3-carboxamide] |
| 12 | 96 | C[C@H](O)CN(C)c1nc2c(cc1F)c(=O)c(C(=O)N[C@@H](C1CC1)C(F)(F)F)cn2-c1c(F)cc(F)cc1F [Example 64, N-[(1S)-1-Cyclopropyl-2,2,2-trifluoroethyl]-6-fluoro-7-{[(2S)-2-hydroxypropyl](methyl)amino}-4-oxo-1-(2,4,6-trifluorophenyl)-1,4-dihydro-1,8-naphthyridine-3-carboxamide] |

The next lines start with the compound.

| SMILES | EC50 [nM] | Emax [%] |
| --- | --- | --- |
| C[C@@H](NC(=O)c1cn(-c2c(F)cc(F)cc2F)c2nc(N3C[C@@H](O)[C@H](O)C3)c(F)cc2c1=O)C1CC1 [Example 19, N-[(1R)-1-cyclopropylethyl]-7-[(3R,4R)-3,4-dihydroxypyrrolidin-1-yl]-6-fluoro-4-oxo-1-(2,4,6-trifluorophenyl)-1,4-dihydro-1,8-naphthyridine-3-carboxamide] | 16 | 98 |
| C[C@H](NC(=O)c1cn(-c2c(F)cc(F)cc2F)c2nc(N3C[C@@H](O)[C@H](O)C3)c(F)cc2c1=O)C1CC1 [Example 20, N-[(1S)-1-cyclopropylethyl]-7-[(3R,4R)-3,4-dihydroxypyrrolidin-1-yl]-6-fluoro-4-oxo-1-(2,4,6-trifluorophenyl)-1,4-dihydro-1,8-naphthyridine-3-carboxamide] | 13 | 92 |
| O=C(NC(C1CC1)C1CC1)c1cn(-c2c(F)cc(F)cc2F)c2nc(N3C[C@@H](O)[C@H](O)C3)c(F)cc2c1=O [Example 21, N-(dicyclopropylmethyl)-7-[(3R,4R)-3,4-dihydroxypyrrolidin-1-yl]-6-fluoro-4-oxo-1-(2,4,6-trifluorophenyl)-1,4-dihydro-1,8-naphthyridine-3-carboxamide] | 3 | 100 |
| CC[C@H](NC(=O)c1cn(-c2c(F)cc(F)cc2F)c2nc(N3C[C@@H](O)[C@H](OC(C)=O)C3)c(F)cc2c1=O)C(F)(F)F [Example 35, (3R,4R)-1-[3-Fluoro-5-oxo-6-{[(2S)-1,1,1-trifluorobutan-2-yl]carbamoyl}-8-(2,4,6-trifluoro-phenyl)-5,8-dihydro-1,8-naphthyridin-2-yl]-4-hydroxypyrrolidin-3-yl acetate] | 2.9 | 100 |
| CC[C@H](NC(=O)c1cn(-c2c(F)cc(F)cc2F)c2nc(N3C[C@@H](O)[C@H](O)C3)c(Cl)cc2c1=O)C(F)(F)F [Example 38, 6-chloro-7-[(3R,4R)-3,4-dihydroxypyrrolidin-1-yl]-4-oxo-N-[(2S)-1,1,1-trifluorobutan-2-yl]-1-(2,4,6-trifluorophenyl)-1,4-dihydro-1,8-naphthyridine-3-carboxamide] | 10.1 | 100 |
| CC[C@H](NC(=O)c1cn(-c2c(F)cc(F)cc2Cl)c2nc(N3C[C@@H](O)[C@H](O)C3)c(F)cc2c1=O)C(F)(F)F [Example 40, 1-(2-chloro-4,6-difluorophenyl)-7-[(3R,4R)-3,4-dihydroxypyrrolidin-1-yl]-6-fluoro-4-oxo-N-[(2S)-1,1,1-trifluorobutan-2-yl]-1,4-dihydro-1,8-naphthyridine-3-carboxamide] | 2.3 | 98 |
| O=C(N[C@@H](C1CC1)C(F)(F)F)c1cn(-c2c(F)cc(F)cc2Cl)c2nc(N3C[C@@H](O)[C@H](O)C3)c(F)cc2c1=O [Example 42, 1-(2-chloro-4,6-difluorophenyl)-N-[(1S)-1-cyclopropyl-2,2,2-trifluoroethyl]-7-[(3R,4R)-3,4-dihydroxypyrrolidin-1-yl]-6-fluoro-4-oxo-1,4-dihydro-1,8-naphthyridine-3-carboxamide] | 4 | 100 |
| C[C@H](NC(=O)c1cn(-c2c(F)cc(F)cc2Cl)c2nc(N3C[C@@H](O)[C@H](O)C3)c(F)cc2c1=O)C1CC1 [Example 43, 1-(2-chloro-4,6-difluorophenyl)-N-[(1S)-1-cyclopropylethyl]-7-[(3R,4R)-3,4-dihydroxypyrrolidin-1-yl]-6-fluoro-4-oxo-1,4-dihydro-1,8-naphthyridine-3-carboxamide] | 7.5 | 100 |
| C[C@@H](NC(=O)c1cn(-c2c(F)cc(F)cc2Cl)c2nc(N3C[C@@H](O)[C@H](O)C3)c(F)cc2c1=O)C1CC1 [Example 44, 1-(2-chloro-4,6-difluorophenyl)-N-[(1R)-1-cyclopropylethyl]-7-[(3R,4R)-3,4-dihydroxypyrrolidin-1-yl]-6-fluoro-4-oxo-1,4-dihydro-1,8-naphthyridine-3-carboxamide] | 12 | 100 |
| CC1(O)CN(c2nc3c(cc2F)c(=O)c(C(=O)NC(C2CC2)C2CC2)cn3-c2ncc(F)cc2F)C1 [Example 56, N-(Dicyclopropylmethyl)-1-(3,5-difluoropyridin-2-yl)-6-fluoro-7-(3-hydroxy-3-methylazetidin-1-yl)-4-oxo-1,4-dihydro-1,8-naphthyridine-3-carboxamide] | 35 | 100 |
| CC[C@H](NC(=O)c1cn(-c2c(F)cc(F)cc2F)c2nc(N3CCCC[C@H]3CO)c(F)cc2c1=O)C(F)(F)F [Example 57, 6-Fluoro-7-[(2S)-2-(hydroxymethyl)piperidin-1-yl]-4-oxo-N-[(2S)-1,1,1-trifluorobutan-2-yl]-1-(2,4,6-trifluorophenyl)-1,4-dihydro-1,8-naphthyridine-3-carboxamide] | 78.5 | 89 |
| O=C(N[C@@H](C1CC1)C(F)(F)F)c1cn(-c2c(F)cc(F)cc2F)c2nc(N3CCCC[C@H]3CO)c(F)cc2c1=O [Example 58, N-[(1S)-1-Cyclopropyl-2,2,2-trifluoroethyl]-6-fluoro-7-[(2S)-2-(hydroxymethyl)piperidin-1-yl]-4-oxo-1-(2,4,6-trifluorophenyl)-1,4-dihydro-1,8-naphthyridine-3-carboxamide] | 104 | 90 |
| O=C(N[C@@H](C1CC1)C(F)(F)F)c1cn(-c2c(F)cc(F)cc2F)c2nc(N3C[C@@H](O)CC3=O)c(F)cc2c1=O [Example 59, N-[(1S)-1-Cyclopropyl-2,2,2-trifluoroethyl]-6-fluoro-7-[(4S)-4-hydroxy-2-oxopyrrolidin-1-yl]-4-oxo-1-(2,4,6-trifluorophenyl)-1,4-dihydro-1,8-naphthyridine-3-carboxamide] | 91.5 | 97 |
| O=C(N[C@@H](C1CC1)C(F)(F)F)c1cn(-c2c(F)cc(F)cc2Cl)c2nc(N3CC4(COC4)C3)c(F)cc2c1=O [Example 68, 1-(2-Chloro-4,6-difluorophenyl)-N-[(1S)-1-cyclopropyl-2,2,2-trifluoroethyl]-6-fluoro-7-(2-oxa-6-azaspiro[3.3]hept-6-yl)-4-oxo-1,4-dihydro-1,8-naphthyridine-3-carboxamide trifluoroacetate] | 32 | 92 |

From patent publication US11472803B2, “7-substituted 1-aryl-naphthyridine-3-carboxylic acid amides and use thereof” (Bayer Aktiengesellschaft, priority 2016, dated 2022)
